# Source: US9676780B2, “Piperazine-substituted [1,2,4]triazolo[1,5-C]quinazolin-5-amine compounds with A2A antagonist properties” (MERCK SHARP & DOHME CORP., priority 2012, dated 2017)
# Target: T1, human A2a receptor (Homo sapiens, UniProt P29274)
# T1 construct: purchased Perkin-Elmer RBHA2AM400UA; host or cells: HEK293
# Assay: A2a receptor competition binding assay (Scintillation Proximity, tritiated radioligand)
# Details: membranes from HEK293 cells expressing the human A2a receptor; 0.5 nM tritiated ligand; SPA beads; one hour at room temperature; read-out: A2a EC50
# Procedure: Binding affinities of compounds of the invention for the human A2a receptor were determined in a competition binding assay using Scintillation Proximity technology. […] The beads were then allowed to settle to the bottom of the wells for 1 hr, after which the membrane-associated radioactivity was determined by scintillation counting in a TopCount microplate reader. Ki values were determined using the Cheng-Prusoff equation.
# • HEK293 cells expressing the human, rat, dog or monkey adenosine 2a receptor (Purchased from Perkin-Elmer # RBHA2AM400UA). • The Tritiated compound was prepared in-house by MRL Radiochemistry according to published methods. • Wheatgerm agglutinin-coated yttrium silicate SPA beads (GE Healthcare #RPNQ0023). […] This is a 2.5× solution. The final concentration in the assay is 0.5 nM. Calculate the concentration by counting two 5 ul aliquots. Membrane Preparation • Use 0.25 ug of membrane/well. Dilute membranes to 9.7 ug/ml in assay buffer. Treat with 20 ug/ml adenosine deaminase (ADA) for 15 minutes at room temperature to degrade endogenous adenosine. Membrane-Bead Mixture • Use 100 ug/well wheatgerm agglutinin-coated yttrium silicate SPA beads. • Mix ADA-treated membranes and SPA beads together for 30 min prior to assay. […] Incubate for one hour at room temperature with agitation. • Include total binding (assay buffer+1% DMSO) and non-specific binding (CGS15943, 1 uM) wells. Counting • Allow the beads to settle for one hour. • Count in TopCount. Calculations • A curve fitting program (i.e., Prism, Activity Base, Chemcart) is used to determine the EC50.
# The Ki value is calculated using the Cheng-Prusoff equation. Ki=EC50/(1+(radioligand concentration/Kd))
# T1 sequence (P29274 whole entry): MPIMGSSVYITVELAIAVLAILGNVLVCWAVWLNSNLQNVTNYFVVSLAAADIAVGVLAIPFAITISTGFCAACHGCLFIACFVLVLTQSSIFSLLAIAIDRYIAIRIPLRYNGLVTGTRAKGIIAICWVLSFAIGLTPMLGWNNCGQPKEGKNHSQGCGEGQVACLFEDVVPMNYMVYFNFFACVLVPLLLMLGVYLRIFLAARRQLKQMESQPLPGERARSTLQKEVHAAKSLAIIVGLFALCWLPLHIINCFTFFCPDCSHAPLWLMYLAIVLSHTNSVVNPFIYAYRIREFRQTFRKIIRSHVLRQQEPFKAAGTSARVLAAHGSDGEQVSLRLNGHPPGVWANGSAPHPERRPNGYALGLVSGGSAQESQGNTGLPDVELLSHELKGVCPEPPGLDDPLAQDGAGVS
row,SMILES,EC50
1,COc1cccc2c1nc(N)n1nc(CN3CCN(c4cc(F)cc(Cl)c4)CC3C)nc21 (stereo not shown) [Ex-101],4.95 nM
2,COc1cccc2c1nc(N)n1nc(CN3CCN(c4ccc(F)c(Cl)c4)CC3C)nc21 (stereo not shown) [Ex-102],2.14 nM
3,COc1cc(Cl)cc(N2CCN(Cc3nc4c5cccc(OC)c5nc(N)n4n3)C(C)C2)c1 (stereo not shown) [Ex-103],5.56 nM
4,COc1cccc2c1nc(N)n1nc(CN3CCN(c4ccncc4F)CC3C)nc21 (stereo not shown) [Ex-104],23.1 nM
5,COc1cc(N2CCN(Cc3nc4c5cccc(OC)c5nc(N)n4n3)C(C)C2)ccn1 (stereo not shown) [Ex-105],16.8 nM
6,COc1cccc2c1nc(N)n1nc(CN3CCN(c4cc(F)cc(F)c4)CC3C)nc21 (stereo not shown) [Ex-106],4.73 nM
7,COc1cccc2c1nc(N)n1nc(CN3CCN(c4cc(F)ccn4)CC3C)nc21 (stereo not shown) [Ex-107],6.98 nM
8,COc1cccc2c1nc(N)n1nc(CN3CCN(c4nsnc4OCCO)CC3C)nc21 (stereo not shown) [Ex-109],4.66 nM
9,COc1cccc2c1nc(N)n1nc(CN3CCN(c4ccc5nc(C6CC6)oc5c4)CC3C)nc21 (stereo not shown) [Ex-110],1.1 nM
10,COc1cccc2c1nc(N)n1nc(CN3CCN(c4cccc5c4cnn5C)CC3C)nc21 (stereo not shown) [Ex-112],1.6 nM
11,COc1cccc2c1nc(N)n1nc(CN3CCN(c4cnccn4)CC3C)nc21 (stereo not shown) [Ex-113],27.3 nM
12,COc1cccc2c1nc(N)n1nc(CN3CCN(c4cc(C#N)ccn4)CC3C)nc21 (stereo not shown) [Ex-114],12.3 nM
13,COc1cc(N2CCN(Cc3nc4c5cccc(OC)c5nc(N)n4n3)C(C)C2)ccc1F (stereo not shown) [Ex-115],1.39 nM
14,COc1cncc(N2CCN(Cc3nc4c5cccc(OC)c5nc(N)n4n3)C(C)C2)c1OC (stereo not shown) [Ex-116],3.03 nM
15,COc1cccc2c1nc(N)n1nc(CN3CCN(c4ccc(C(F)(F)F)c(C(F)(F)F)c4)CC3C)nc21 (stereo not shown) [Ex-117],12.7 nM
16,COc1ccc(N2CCN(Cc3nc4c5cccc(OC)c5nc(N)n4n3)C(C)C2)cc1C(F)(F)F (stereo not shown) [Ex-118],1.25 nM

row,SMILES,EC50
1,COc1cccc2c1nc(N)n1nc(CN3CCN(c4ccc(N5CCOCC5)cc4)CC3C)nc21 (stereo not shown) [Ex-119],1.97 nM
2,COc1cccc2c1nc(N)n1nc(CN3CCN(c4cc(C(F)(F)F)cc(C(F)(F)F)c4)CC3C)nc21 (stereo not shown) [Ex-120],20.7 nM
3,COc1ccc(Cl)c(N2CCN(Cc3nc4c5cccc(OC)c5nc(N)n4n3)C(C)C2)c1 (stereo not shown) [Ex-121],13.2 nM
4,COc1cccc2c1nc(N)n1nc(CN3CCN(c4ncc(F)cc4F)CC3C)nc21 (stereo not shown) [Ex-122],4.86 nM
5,COc1cccc2c1nc(N)n1nc(CN3CCN(c4cc(C(F)F)ccn4)CC3C)nc21 (stereo not shown) [Ex-123],4.25 nM
6,COc1cccc2c1nc(N)n1nc(CN3CCN(c4cc(Cl)cc(Cl)c4)CC3C)nc21 (stereo not shown) [Ex-124],2.82 nM
7,COc1cc(N2CCN(Cc3nc4c5cccc(OC)c5nc(N)n4n3)C(C)C2)ccc1Cl (stereo not shown) [Ex-125],1.03 nM
8,COc1cccc2c1nc(N)n1nc(CN3CCN(c4cccc(N(C)C)c4)CC3C)nc21 (stereo not shown) [Ex-126],2.39 nM
9,COc1cccc2c1nc(N)n1nc(CN3CCN(c4ccc(Cl)c(Cl)c4)CC3C)nc21 (stereo not shown) [Ex-127],3.08 nM
10,COc1cccc2c1nc(N)n1nc(CN3CCN(c4ccc5c(c4)c(C)nn5C)CC3C)nc21 (stereo not shown) [Ex-128],0.964 nM
11,COc1cccc2c1nc(N)n1nc(CN3CCN(c4c(C)nn(C)c4C)CC3C)nc21 (stereo not shown) [Ex-129],11.6 nM
12,COc1cccc2c1nc(N)n1nc(CN3CCN(c4ccc5c(cnn5C)c4)CC3C)nc21 (stereo not shown) [Ex-130],0.898 nM
13,COc1cccc2c1nc(N)n1nc(CN3CCN(c4ccc5nn(C)cc5c4)CC3C)nc21 (stereo not shown) [Ex-131],0.698 nM
14,COc1cccc2c1nc(N)n1nc(CN3CCN(c4cccc5nn(C)cc45)CC3C)nc21 (stereo not shown) [Ex-132],2.04 nM
15,COc1cc(OC)cc(N2CCN(Cc3nc4c5cccc(OC)c5nc(N)n4n3)C(C)C2)c1 (stereo not shown) [Ex-133],1.68 nM
16,COc1cccc2c1nc(N)n1nc(CN3CCN(c4ccc(Cl)cn4)CC3C)nc21 (stereo not shown) [Ex-134],4.57 nM

# Second part, the compound after the results:
row,EC50,SMILES
1,10.7 nM,COc1cccc2c1nc(N)n1nc(CN3CCN(c4nccnc4C)CC3C)nc21 (stereo not shown) [Ex-135]
2,11.4 nM,COc1cccc2c1nc(N)n1nc(CN3CCN(c4ccc(F)c(C)n4)CC3C)nc21 (stereo not shown) [Ex-136]
3,20.6 nM,COc1cccc2c1nc(N)n1nc(CN3CCN(c4ccc(C#N)cn4)CC3C)nc21 (stereo not shown) [Ex-137]
4,14.3 nM,COc1cccc2c1nc(N)n1nc(CN3CCN(c4ccc(C)cn4)CC3C)nc21 (stereo not shown) [Ex-138]
5,81.8 nM,COc1cccc2c1nc(N)n1nc(CN3CCN(c4cc(C(F)(F)F)c(C(F)(F)F)cn4)CC3C)nc21 (stereo not shown) [Ex-139]
6,4.93 nM,COc1cccc2c1nc(N)n1nc(CN3CCN(c4cnn(CC(C)(C)C)c4)CC3C)nc21 (stereo not shown) [Ex-140]
7,2.34 nM,COCc1c2cc(N3CCN(Cc4nc5c6cccc(OC)c6nc(N)n5n4)C(C)C3)ccc2nn1C (stereo not shown) [Ex-141]
8,16.5 nM,COc1ccnc(N2CCN(Cc3nc4c5cccc(OC)c5nc(N)n4n3)C(C)C2)c1 (stereo not shown) [Ex-142]
9,13.9 nM,COc1cccc2c1nc(N)n1nc(CN3CCN(c4cccc(S(C)(=O)=O)c4)CC3C)nc21 (stereo not shown) [Ex-143]
10,20.1 nM,COc1cccc2c1nc(N)n1nc(CN3CCN(c4cnccc4C)CC3C)nc21 (stereo not shown) [Ex-144]
11,6.35 nM,COc1cncc(N2CCN(Cc3nc4c5cccc(OC)c5nc(N)n4n3)C(C)C2)c1 (stereo not shown) [Ex-146]
12,6.6 nM,COc1cccc2c1nc(N)n1nc(C(=O)N3CCN(CC(F)(F)F)CC3C)nc21 (stereo not shown) [Ex-147]
13,18 nM,COc1cccc2c1nc(N)n1nc(CN3CCN(c4ncccc4C(F)(F)F)CC3C)nc21 (stereo not shown) [Ex-148]
14,13.4 nM,COc1cccc2c1nc(N)n1nc(CN3CCN(c4cc(F)cc(C(=O)O)c4)CC3C)nc21 (stereo not shown) [Ex-149]
15,15 nM,COc1cccc2c1nc(N)n1nc(CN3C(C)CN(c4ccc(F)cn4)CC3C)nc21 (stereo not shown) [Ex-150]
16,2.22 nM,COc1cccc2c1nc(N)n1nc(CN3CCN(c4ccc(OCC(F)F)cc4)CC3C)nc21 (stereo not shown) [Ex-151]
17,2.2 nM,COc1cccc2c1nc(N)n1nc(CN3CCN(c4ccc(OCC5CC5)cc4)CC3C)nc21 (stereo not shown) [Ex-152]
18,7.3 nM,COc1cccc2c1nc(N)n1nc(CC(=O)N3CCN(c4ccccn4)CC3)nc21 [Ex-153]
19,2.6 nM,COc1cccc2c1nc(N)n1nc(CC(=O)N3CCN(c4ccc(F)cc4)C[C@H]3C)nc21 [Ex-154]
20,136 nM,C[C@@H]1CN(c2ccc(F)cc2)CCN1Cc1nc2c3cccc(C(F)(F)F)c3nc(N)n2n1 [Ex-155]
21,740 nM,C[C@@H]1CN(c2ccc(F)cc2)CCN1Cc1nc2c3cccc(C#N)c3nc(N)n2n1 [Ex-156]
22,14.4 nM,C[C@@H]1CN(c2ccc(F)cc2)CCN1Cc1nc2c3cccc(Br)c3nc(N)n2n1 [Ex-157]

row,EC50,SMILES
1,7.1 nM,COc1cccc2c1nc(N)n1nc(CCCN3CCN(c4ccccn4)CC3)nc21 [Ex-158]
2,343 nM,Cc1noc2cc(F)c(N3CCN(Cc4nc5c6ccccc6nc(N)n5n4)CC3)cc12 [Ex-160]
3,525 nM,COCCOc1ccc(N2CCN(Cc3nc4c5ccccc5nc(N)n4n3)CC2)cc1 [Ex-161]
4,74.2 nM,COCCOc1ccc(N2CCN(Cc3nc4c5cc(F)cc(F)c5nc(N)n4n3)CC2)cc1 [Ex-162]
5,7.8 nM,COc1cccc2c1nc(N)n1nc(CCN3CCN(c4ncc(F)cn4)CC3)nc21 [Ex-163]
6,2.5 nM,COc1cccc2c1nc(N)n1nc(CCN3CCN(c4ccc(F)cn4)CC3)nc21 [Ex-164]
7,3.3 nM,COc1cccc2c1nc(N)n1nc(CCN3CCN(c4ccccn4)CC3)nc21 [Ex-165]
8,13.5 nM,COc1cccc2c1nc(N)n1nc(CCN3CCN(c4ccccc4)CC3)nc21 [Ex-166]
9,4.1 nM,COc1cccc2c1nc(N)n1nc(CCN3CCN(c4ccc(F)cc4)C[C@H]3C)nc21 [Ex-168]
10,2.6 nM,COc1cccc2c1nc(N)n1nc(CCN3CCN(c4ccc(F)cn4)C[C@H]3C)nc21 [Ex-169]
11,157 nM,COc1cccc2c1nc(N)n1nc(CN3CCN(c4ccccn4)CC3)nc21 [Ex-170]
12,30.4 nM,COc1cccc2c1nc(N)n1nc(CN3CCN(C(=O)OC(C)(C)C)CC3C(F)(F)F)nc21 (stereo not shown) [Ex-171]
13,22.6 nM,COc1cccc2c1nc(N)n1nc(CN3CCN(c4ccc(C(F)(F)F)cn4)C[C@H]3C)nc21 [Ex-173]
14,5.6 nM,COc1cccc2c1nc(N)n1nc(CN3CCN(c4ccc(F)cc4)CC3C(F)F)nc21 (stereo not shown) [Ex-175]
15,8.9 nM,COc1cccc2c1nc(N)n1nc(CN3CCN(c4ccc(F)cc4)CC3CF)nc21 (stereo not shown) [Ex-176]
16,12.7 nM,COc1cccc2c1nc(N)n1nc(CN3CCN(c4ccc(F)cc4)CC3C(F)(F)F)nc21 (stereo not shown) [Ex-177]
17,1.1 nM,COc1ccc(N2CCN(Cc3nc4c5cccc(OC)c5nc(N)n4n3)CC2(C)C)cc1 [Ex-180]
18,19.9 nM,COc1cccc2c1nc(N)n1nc(CN3CCN(c4ccc(F)cc4)[C@@H](C)C3)nc21 [Ex-181]
19,10.2 nM,COc1cccc2c1nc(N)n1nc(CN3CCN(c4ccc(F)cn4)[C@@H](C)C3)nc21 [Ex-182]
20,5 nM,COc1cccc2c1nc(N)n1nc(CN3CCN(c4ccc(F)cc4)CC3(C)C)nc21 [Ex-183]
21,16.4 nM,COc1ccc(N2CCN(Cc3nc4c5cc(F)cc(OC)c5nc(N)n4n3)CC2(C)C)cc1 [Ex-184]
22,3.5 nM,COc1cccc(N2CCN(Cc3nc4c5cc(F)cc(OC)c5nc(N)n4n3)CC2(C)C)c1 [Ex-186]
